Values of other authors, collected in the PKSmart pharmacokinetics tables (Seal et al. 2025).

Assay: not given per row; by the article one of three: Lombardo et al. 2013, J Clin Pharmacol 53:178, doi 10.1177/0091270012440282; 'New Drugs at FDA', novel drug approvals for 2021 and 2022 (the article's reference 43); Yap, Li, Chen 2006, J Mol Graph Model 24:383, doi 10.1016
Conditions: human; for fraction unbound: plasma

Row | SMILES | clearance (in vivo) [mL/min/kg] | further results
1 | O=C(CCC(C(=O)O)N1CCN(C(CCC(=O)NCC(O)CO)C(=O)O)Cc2cccc(n2)CN(C(CCC(=O)NCC(O)CO)C(=O)O)CC1)NCC(O)CO (configuration not stated) | 1.67 | Vd (in vivo): 0.22 L/kg; half-life (in vivo): 1.5 h; fraction unbound: 0.98
2 | NC(=O)CN1CCCC1=O | 1.3 | 
3 | C[C@@H](O)C1C(=O)N2C(C(=O)O)=C(S[C@@H]3CNC(C(=O)N(C)C)C3)[C@H](C)[C@@H]12 (some centres not stated) | 3.49 | 
4 | CN1CCC(COc2cnc(-c3cccc(Cn4nc(-c5cccc(C#N)c5)ccc4=O)c3)nc2)CC1 |  | fraction unbound: 0.02
5 | CO[C@]1(NC(=O)C(C(=O)O)c2ccc(O)cc2)C(=O)N2C(C(=O)O)=C(CSc3nnnn3C)CO[C@@H]21 (some centres not stated) | 1.32 | 
6 | Fc1ccc([C@H]2CCNC[C@@H]2COc2ccc3c(c2)OCO3)cc1 | 6.8 | 
7 | CC(C)(C)NC[C@@H](O)COc1cccc2c1C[C@H](O)[C@@H](O)C2 | 2.94 | 
8 | COC(=O)C1=C(C)NC(C)=C(C(=O)OC(C)C)[C@H]1c1cccc2nonc12 | 9.52 | 
9 | Oc1ccc2c(c1)C13CCCC[C@@]1(O)[C@H](C2)N(CC1CCC1)CC3 | 40 | 
10 | CC12CCC(=O)C=C1C1CC1C1C2CCC2(C)C1C1CC1C21CCC(=O)O1 (configuration not stated) |  | half-life (in vivo): 34 h; fraction unbound: 0.04
11 | C[C@@H](O)C1C(=O)N2C(C(=O)O)=C(S[C@H]3CNC(C(=O)Nc4cccc(C(=O)O)c4)C3)[C@H](C)[C@@H]12 (some centres not stated) | 0.4 | 
12 | C[C@H]1CN(C2CCC(C#N)(c3ccc(F)cc3)CC2)CC[C@]1(C(=O)O)c1ccccc1 (some centres not stated) | 0.43 | 
13 | O=[P@@]1(NCCCl)OCCCN1CCCl | 1.23 | 
14 | CC(=O)N(C[C@H](O)CO)c1c(I)c(C(=O)NCCO)c(I)c(C(=O)NC[C@H](O)CO)c1I | 1.44 | 
15 | NC(=O)c1cc[n+](CC2=C(C(=O)O)N3C(=O)C(NC(=O)C(c4ccccc4)S(=O)(=O)[O-])[C@@H]3SC2)cc1 (some centres not stated) | 1.92 | 
16 | CC(=O)OCC(CCn1cnc2cnc(N)nc21)COC(C)=O | 8 | 
17 | COc1cc2c(cc1OC)CN(C(=O)C(C)NC(CCc1ccccc1)C(=O)O)C(C(=O)O)C2 (configuration not stated) | 3.31 | 
18 | O=C(Cn1ccnc1[N+](=O)[O-])NCCO | 1.73 | 
19 | CC(=O)C1CC[C@H]2[C@@H]3CC[C@H]4C[C@](C)(O)CC[C@]4(C)[C@H]3CC[C@]12C (some centres not stated) |  | half-life (in vivo): 34 h; fraction unbound: 0.01

Row | SMILES | clearance (in vivo) [mL/min/kg] | further results
20 | Oc1ccc2c3c1O[C@@H]1[C@@H](O)CC[C@]4(O)[C@H](C2)N(CC2CCC2)CC[C@@]314 | 29.7 | 
21 | CCOCn1c(Cc2ccccc2)c(C(C)C)c(=O)[nH]c1=O | 28.6 | 
22 | CCCCCOC(=O)Nc1nc(=O)n([C@@H]2O[C@H](C)[C@@H](O)[C@H]2O)cc1F | 59.7 | 
23 | CC(CO)(CO)NCc1cc2c3ccccc3ccc2c2ccccc12 | 8.44 | 
24 | Cc1ccccc1OC[C@@H](O)CNCCOc1ccc(C(N)=O)cc1 | 10.8 | 
25 | C[C@H]1CO[C@@H]2Cn3cc(C(=O)NCc4ccc(F)cc4F)c(=O)c(O)c3C(=O)N12 |  | fraction unbound: 0.48
26 | COc1ccc2c3c1O[C@@H]1[C@@H](O)C=C[C@@H]4[C@H](C2)N(C)CC[C@]341 | 11 | 
27 | CN(C/C=C/C#CC(C)(C)C)Cc1cccc2ccccc12 | 17.9 | 
28 | C[C@]1(Cn2ccnn2)C(C(=O)O)N2C(=O)C[C@@H]2S1(=O)=O (some centres not stated) | 2.91 | 
29 | CO[C@]1(NC(=O)Cc2cccs2)C(=O)N2C(C(=O)O)=C(COC(N)=O)CS[C@@H]21 | 2.89 | 
30 | OCCOCCN1CCN(C2=Nc3ccccc3Sc3ccccc32)CC1 | 19.1 | 
31 | C[C@@H](CN(C)C)CN1c2ccccc2CCc2ccccc21 | 15.9 | 
32 | CN1CCN(c2c(F)cc3c(=O)c(C(=O)O)cn4c3c2SCC4)CC1 | 0.57 | 
33 | COCc1c(-c2ccc(F)cc2)c(=CC[C@H](O)C[C@H](O)CC(=O)O)c(C(C)C)nc1=C(C)C | 2.98 | 
34 | CON=C(C(=O)NC1C(=O)N2C(C(=O)[O-])=C(C[N+]34CCC(C(N)=O)(CC3)CC4)CS[C@H]12)c1nsc(N)n1 (some centres not stated) | 2.15 | 
35 | COc1ccc(OC)c(Cc2cnc3nc(N)nc(N)c3c2C)c1 | 2.21 | 
36 | NC(=O)N1c2ccccc2C=Cc2ccccc21 | 1.11 | 
37 | NC(Cc1cc(I)c(Oc2ccc(O)c(I)c2)c(I)c1)C(=O)O (configuration not stated) | 0.25 | 
